Assay results as given in patent US20210290816A1, “LIQUID EMBOLICS” (MicroVention, Inc., priority 2020, published 2021).
Structures can show the parent of a compound that is named as a salt. Blank lines part the entries; values can stand above or below the molecule they belong to.

Legend:
[1] = In vitro elution of doxorubicin from PHIL® solution; assay type: physicochemical; settings: 50 mg doxorubicin hydrochloride in 1 mL 25 wt % PHIL®, 99 mL 10 mM potassium phosphate buffer pH 4.0, room temperature
Description: (§1) Fifty mg of doxorubicin hydrochloride are dissolved in 1 mL of 25 wt % PHIL® solution, which includes triiodophenol-(lactide-co-glycolide) acrylate and hydroxyethyl methacrylate in dimethyl sulfoxide. The 1 mL of 25 wt % PHIL®/doxorubicin solution is precipitated in 99 mL of a dissolution medium, including 10 mM potassium phosphate buffer solution pH 4.0 at room temperature. At 2, 5, 9, 14, 20, 27, 35, 44, 54, 65 and 90 minutes, 1 mL of the supernatant is pipetted out and placed in a HPLC vial.
The concentration of doxorubicin in each sample is determined using an Agilent 1100 HPLC system. The chromatographic analysis is performed with an Agilent Extended-C18 column (4.6 mm×50 mm, 3.5 μm). The mobile phase includes 18% acetonitrile and 82% 10 mM potassium phosphate buffer solution pH 3 with 5% acetonitrile and 7.2 mM triethylamine delivered at 1 mL/min. The injection volume is 3 μL and the wavelength of the ultraviolet detector is 234 nm. The calibration curve is prepared from 10 to 1000 ppm of doxorubicin. The amount of doxorubicin released and relative percentage are calculated from the concentration data.

[2] = In vitro elution of irinotecan from PHIL® solution; assay type: physicochemical; settings: 50 mg irinotecan hydrochloride in 1 mL 25 wt % PHIL®, 99 mL 10 mM potassium phosphate buffer pH 4.0, room temperature
Description: (§2) The chromatographic analysis is performed with an Agilent Extended-C18 column (4.6 mm×50 mm, 3.5 μm). The mobile phase includes of 18% acetonitrile and 82% 10 mM potassium phosphate buffer solution pH 3 with 5% acetonitrile and 7.2 mM triethylamine delivered at 1 mL/min. The injection volume is 2 μL and the wavelength of the ultraviolet detector is 223 nm.

Canine Liver = assay: In vivo evaluation of PHIL LV liquid embolic with irinotecan in canine liver
Description: A canine is anesthetized and a 6 Fr sheath is inserted into the femoral artery via a cutdown. A 6 Fr Glidecath is advanced retrograde into the celiac trunk and further into the hepatic artery. Following angiography, a Scepter balloon (4 mm×10 mm) is advanced through the Glidecath and into a branch of the hepatic artery. […] Blood is collected at 5, 15, 30, 60, and 120 minutes post-embolization for irinotecan quantification.

[3] = In vitro elution of paclitaxel from PHIL® solution; assay type: physicochemical; settings: 50 mg in 1 mL 25 wt % PHIL®, 199 mL 45:55 acetonitrile/10 mM potassium phosphate buffer pH 4.5, room temperature
Description: Fifty mg of paclitaxel are dissolved in 1 mL of 25 wt % PHIL® solution, which includes triiodophenol-(lactide-co-glycolide) acrylate and hydroxyethyl methacrylate in dimethyl sulfoxide. The 1 mL of 25 wt % PHIL®/Paclitaxel solution is precipitated in 199 mL of a dissolution medium, consisting of 45:55 acetonitrile/10 mM potassium phosphate buffer solution pH 4.5 at room temperature. At 2, 5, 9, 14, 20, 27, 35, 44, 54, 65 and 90 minutes, 1 mL of the supernatant is pipetted out and placed in a HPLC vial. The concentration of paclitaxel in each sample is determined using an Agilent 1100 HPLC system. The chromatographic analysis is performed with an Agilent Extended-C18 column (4.6 mm×50 mm, 3.5 μm). The mobile phase includes 50% acetonitrile and 50% 5% acetonitrile in water delivered at 1 mL/min. The injection volume is 10 μL and the wavelength of the ultraviolet detector was 227 nm. The calibration curve is prepared from 5 to 500 ppm of paclitaxel. The amount of paclitaxel released and relative percentage are calculated from the concentration data.

[4] = In vitro elution of sorafenib from PHIL® solution; assay type: physicochemical; settings: 50 mg in 1 mL 25 wt % PHIL®, 999 mL 70:30 acetonitrile/10 mM potassium phosphate buffer pH 4.3, room temperature
Description: The 1 mL of 25 wt % PHIL®/sorafenib solution is precipitated in 999 mL of a dissolution medium, including 70:30 acetonitrile/10 mM potassium phosphate buffer solution pH 4.3 at room temperature.
as §2, with “includes 50%” for “includes of 18%”, “and 50%” for “and 82%”, “is 3” for “is 2”, “is 263” for “is 223”, “nm. The calibration curve is prepared from 1 to 100 ppm of sorafenib.” for “nm.”

[5] = In vitro elution of oxaliplatin from PHIL® solution (ICP-MS platinum); assay type: physicochemical; settings: 50 mg in 1 mL 25 wt % PHIL®, 50 mL PBS replaced at each time point, room temperature
Description: The remaining supernatant is poured out and the precipitates are mixed with a fresh 50 mL of the dissolution medium at room temperature.
Samples are prepared for ICP-MS analysis to measure the platinum concentration in the supernatant by mixing a sample portion (1 mL) with 4 mL of 2% nitric acid (5-fold dilution) or a sample portion (2.5 mL) with 0.05 mL of 2% nitric acid (undiluted). The calibration curve is prepared from 0.5 to 100 ppm of platinum.

[6] = In vitro elution of sunitinib from PHIL® solution; assay type: physicochemical; settings: 50 mg sunitinib malate in 1 mL 25 wt % PHIL®, 999 mL phosphate buffered saline
Description: The 1 mL of 25 wt % PHIL®/sunitinib solution is precipitated in 999 mL of a dissolution medium, including phosphate buffered saline.
as §2, with “includes 22%” for “includes of 18%”, “and 78%” for “and 82%”, “is 3” for “is 2”, “is 429” for “is 223”, “nm. The calibration curve is prepared from 1 to 100 ppm of sunitinib.” for “nm.”

[7] = 50 mg in 1 mL 25 wt % PHIL®, 99 mL distilled water, room temperature
Description: as §1, with “cyclophosphamide” for “doxorubicin hydrochloride”, “PHIL®/cyclophosphamide” for “PHIL®/doxorubicin”, “distilled water” for “10 mM potassium phosphate buffer solution pH 4.0”
The concentration of cyclophosphamide in each sample is determined using an Agilent 1100 HPLC system. The chromatographic analysis is performed with a Primesep 100 column (3.2 mm×50 mm, 3 μm). The mobile phase includes 5% acetonitrile and 95% HPLC water with 5% acetonitrile delivered at 1 mL/min. The injection volume is 25 μL and the wavelength of the ultraviolet detector is 197 nm. The calibration curve is prepared from 10 to 1000 ppm of cyclophosphamide. The amount of cyclophosphamide released and relative percentage are calculated from the concentration data.

[8] = In vitro elution of carmustine from PHIL® solution; assay type: physicochemical; settings: 50 mg in 1 mL 25 wt % PHIL®, 99 mL distilled water, room temperature
Description: as §1, with “carmustine” for “doxorubicin hydrochloride”, “PHIL®/carmustine” for “PHIL®/doxorubicin”, “distilled water” for “10 mM potassium phosphate buffer solution pH 4.0”
The concentration of carmustine in each sample is determined using an Agilent 1100 HPLC system. The chromatographic analysis is performed with a Primesep 100 column (3.2 mm×50 mm, 3 μm). The mobile phase includes 10% methanol and 90% 10 mM potassium phosphate buffer solution pH 3 with 5% acetonitrile and 7.2 mM triethylamine delivered at 1 mL/min. The injection volume is 3 μL and the wavelength of the ultraviolet detector is 230 nm. The calibration curve is prepared from 10 to 1000 ppm of carmustine. The amount of carmustine released and relative percentage are calculated from the concentration data.

[9] = In vitro elution of gemcitabine from PHIL® solution; assay type: physicochemical; settings: 50 mg in 1 mL 25 wt % PHIL®, 99 mL PBS, room temperature
Description: The chromatographic analysis is performed with an Agilent Extended-C18 column (4.6 mm×50 mm, 3.5 μm). […] The injection volume is 3 μL and the wavelength of the ultraviolet detector is 275 nm.

total amount of doxorubicin eluted ([1]; first 90 minutes): 38 mg per 1 mL of PHIL®
sharp increase of doxorubicin eluted ([1]; within the first 14 minutes): 29 mg
SMILES: COc1cccc2c1C(=O)c1c(O)c3c(c(O)c1C2=O)C[C@@](O)(C(=O)CO)C[C@@H]3O[C@H]1C[C@H](N)[C@H](O)[C@H](C)O1 [doxorubicin, doxorubicin hydrochloride]

total amount of irinotecan eluted ([2]; first 90 minutes): 31 mg per 1 mL of PHIL®
sharp increase of irinotecan eluted ([2]; within the first 9 minutes): 24 mg
irinotecan in the blood, rapid rise to (Canine Liver; 1.5 mL PHIL LV loaded with 75 mg irinotecan into hepatic artery branch, blood 5-120 minutes post-embolization): about 300 ppb
tapering of irinotecan in the blood back to baseline (Canine Liver; 1.5 mL PHIL LV loaded with 75 mg irinotecan, blood collected to 120 minutes): beyond the timescale of the experiment
SMILES: CCc1c2c(nc3ccc(OC(=O)N4CCC(N5CCCCC5)CC4)cc13)-c1cc3c(c(=O)n1C2)COC(=O)[C@]3(O)CC [irinotecan, irinotecan hydrochloride]

total amount of paclitaxel eluted ([3]; first 90 minutes): 38 mg per 1 mL of PHIL®
sharp increase of paclitaxel eluted ([3]; within the first 9 minutes): 30 mg
SMILES: CC(=O)O[C@H]1C(=O)[C@@]2(C)[C@H]([C@H](OC(=O)c3ccccc3)[C@]3(O)C[C@H](OC(=O)[C@H](O)[C@@H](NC(=O)c4ccccc4)c4ccccc4)C(C)=C1C3(C)C)[C@]1(OC(C)=O)CO[C@@H]1C[C@@H]2O [paclitaxel]

total amount of sunitinib eluted ([6]; first 65 minutes): 16 mg per 1 mL of PHIL®
sharp increase of sunitinib eluted ([6]; within the first 2 minutes): 11 mg
SMILES: CCN(CC)CCNC(=O)c1c(C)[nH]c(/C=C2\C(=O)Nc3ccc(F)cc32)c1C [sunitinib, sunitinib malate]

Second part, the molecule before the results:

SMILES: CNC(=O)c1cc(Oc2ccc(NC(=O)Nc3ccc(Cl)c(C(F)(F)F)c3)cc2)ccn1 [sorafenib]
total amount of sorafenib eluted ([4]; first 90 minutes): 42 mg per 1 mL of PHIL®
sharp increase of sorafenib eluted ([4]; within the first 2 minutes): 38 mg

SMILES: O=C1[O][Pt]2([NH][C@@H]3CCCC[C@H]3[NH]2)[O]C1=O [oxaliplatin]
total amount of oxaliplatin eluted ([5]; first 80 minutes): 41 mg per 1 mL of PHIL®
sharp increase of oxaliplatin eluted ([5]; within the first 15 minutes): 37 mg

SMILES: O=P1(N(CCCl)CCCl)NCCCO1 (centres unmarked) [cyclophosphamide]
total amount of cyclophosphamide eluted ([7]; first 90 minutes): 38 mg per 1 mL of PHIL®
sharp increase of cyclophosphamide eluted ([7]; within the first 35 minutes): 35 mg

SMILES: O=NN(CCCl)C(=O)NCCCl [carmustine]
total amount of carmustine eluted ([8]; first 90 minutes): 26 mg per 1 mL of PHIL®
sharp increase of carmustine eluted ([8]; within the first 35 minutes): 21 mg

SMILES: Nc1ccn([C@@H]2O[C@H](CO)[C@@H](O)C2(F)F)c(=O)n1 [gemcitabine]
total amount of gemcitabine eluted ([9]; first 90 minutes): 43 mg per 1 mL of PHIL®
sharp increase of gemcitabine eluted ([9]; within the first 9 minutes): 34 mg
